In PubChem BioAssay AID463204 (Broad Institute, 2010):
The source made the active and inactive calls.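 Rule for the calls: active = AC50 no more than ten times the top concentration tested, that is within one log above it; inconclusive = flat curve fit with activity between 30% and 70%, or invalid poor fit; inactive = AC50 beyond ten times the top tested dose.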

Test system: S. cerevisiae Mot1-301 ts growth rescue, BacTiter-Glo ATP luminescence
Experiment: restored Mot1-301 yeast growth at 38.5C – whole organism, S. cerevisiae, Mot1-301 ts mutant, luminescence, dose retest, SUMOylation pathway inhibitor project, confirmation (AID 463204);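 note: growth at restrictive 38.5 degrees C of Mot1-301 OY566 strain; actives raise luminescence by restoring growth of the ts mutant at high temperature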

`CCOC(=O)C1CC(c2ccccc2)=NNC1=O` (stereo not given) was tested, and the AC50 was > 42 µM (inactive).
For `COC(=O)c1cc2c(s1)-c1ccc(OC)cc1CC2`, the AC50 was > 42 µM (inactive).
In the case of `O=C(c1ccncc1)N(Cc1ccccc1)Cc1nc2ccccc2c(=O)[nH]1`, the AC50 is reported as > 42 µM (inactive).
With `COC(=O)c1cccc(NC(=O)CN(c2ccc3c(c2)OCO3)S(C)(=O)=O)c1C` the AC50 was > 42 µM (inactive).
`Cc1ccc(C)c(OCCCC(=O)N2CCOCC2)c1` was tested, and the AC50 was > 42 µM (inactive).
For `Cc1ccnc(NC(c2cccnc2)c2ccc3cccnc3c2O)c1` (stereo not given), the AC50 was > 42 µM (inactive).
With `Cn1c(CCN2CCOCC2)nc2cc(NC(=O)COc3ccccc3)ccc21` the AC50 was > 42 µM (inactive).
In the case of `Cc1cccc(NC(=S)NCc2ccco2)c1C`, the AC50 is reported as > 42 µM (inactive).
In the case of `CCOC(=O)c1c(C)[nH]c(C(=O)COC(=O)c2ccncc2)c1C`, the AC50 is reported as > 42 µM (inactive).
`Cc1cc(C)c(NC(=O)CNC(=O)c2cc([N+](=O)[O-])ccc2N2CCOCC2)c(C)c1` was tested, and the AC50 was > 42 µM (inactive).
`COc1ccccc1N1CCN(C(=O)c2ccc(N3CCCCS3(=O)=O)cc2)CC1` was tested, and the AC50 was > 42 µM (inactive).
`O=C(COc1ccc(F)cc1Cl)N(Cc1nnc(-c2ccccc2Cl)o1)C1CC1` was tested, and the AC50 was > 42 µM (inactive).
With `CC(C)c1onc(C(=O)N(C)Cc2ccccc2)c1[N+](=O)[O-]` the AC50 was > 42 µM (inactive).
`Cc1ccc(-c2nc(CS(=O)(=O)CC(=O)NC3CCCCC3C)c(C)o2)cc1` (stereo not given) was tested, and the AC50 was > 42 µM (inactive).
For `NC(=O)CC(NC(=O)Cc1cccc2ccccc12)c1ccc(NCCCN2CCCC2=O)c([N+](=O)[O-])c1` (stereo not given), the AC50 was > 42 µM (inactive).
For `CCn1c(SCC(=O)NC2CCCCC2)nnc1C(C)NC(=O)c1ccccc1F` (stereo not given), the AC50 was > 42 µM (inactive).
`CC(C)Oc1ccc(CCC(=O)NNC(=O)c2ccccc2C(=O)O)cc1` was tested, and the AC50 was > 42 µM (inactive).
For `CCOC(=O)C1CCN(C(=O)c2sccc2Cl)CC1`, the AC50 was > 42 µM (inactive).
For `CCOC(=O)c1cnc2oc3ccccc3n2c1=O`, the AC50 was > 42 µM (inactive).
In the case of `CCCCCCCN1C(Nc2ccccc2)=NC[C@@H]1CC(C)C`, the AC50 is reported as > 21 µM (inactive).
`CCN(CC)S(=O)(=O)c1cc(NC(=O)COC(=O)CCc2nc3ccccc3s2)ccc1C` was tested, and the AC50 was > 42 µM (inactive).
With `CCn1cc(CCCC(=O)NCc2ccccc2OC)c2ccccc21` the AC50 was > 42 µM (inactive).
For `CSc1ccc(CN2CCN(S(=O)(=O)Cc3ccccc3)CC2)cc1`, the AC50 was > 42 µM (inactive).
For `COCCn1c(SCc2ccc(Cl)cc2)nc2c1c(=O)[nH]c(=O)n2C`, the AC50 was > 42 µM (inactive).
`Cc1ccc(S(=O)(=O)NNC(=O)c2cc3cc4ccccc4nc3s2)cc1` was tested, and the AC50 was > 42 µM (inactive).
With `COc1ccc(NC2CCCN(C(=O)CCc3scnc3C)C2)cc1` (stereo not given) the AC50 was > 42 µM (inactive).
For `CCCCOC(=O)/C(=C/C=C/c1ccccc1)NC(=O)c1ccccc1`, the AC50 was > 42 µM (inactive).
`O=C(O)c1cn(Cc2ccccn2)c(=O)c2ccccc12` was tested, and the AC50 was > 42 µM (inactive).
`Cc1ccc2nc(NC(=O)C3CCN(S(=O)(=O)c4cccnc4)CC3)sc2c1` was tested, and the AC50 was > 42 µM (inactive).
`O=C(CSc1nc2ccc(Nc3nc(N4CCOCC4)nc(N4CCOCC4)n3)cc2s1)N1CCOCC1` was tested, and the AC50 was > 42 µM (inactive).
With `CC(=O)c1c(Nc2cccc(F)c2)oc(C)cc1=O` the AC50 was > 42 µM (inactive).
`O=C(N/N=C/c1ccccc1)c1[nH]c2ccc(Br)cc2c1-c1ccccc1` was tested, and the AC50 was > 42 µM (inactive).
`CC(C(=O)Nc1ccccc1-c1ccccc1)N1CCN(Cc2ccccc2)CC1` (stereo not given) was tested, and the AC50 was > 42 µM (inactive).
In the case of `CCN(C(=O)Cn1c(=O)oc2ccccc21)c1cccc(C)c1`, the AC50 is reported as > 42 µM (inactive).
In the case of `CCOC(=O)C1C(c2ccc(C)o2)NC(=O)NC1(O)C(F)(F)F` (stereo not given), the AC50 is reported as > 42 µM (inactive).
In the case of `CC(NC(=O)c1cnc2n(c1=O)CCS2)c1ccccc1` (stereo not given), the AC50 is reported as > 42 µM (inactive).
In the case of `CCOc1ccc(-c2nc3n(c(=O)c2C#N)CCS3)cc1`, the AC50 is reported as > 42 µM (inactive).
With `COc1ccc(N2C(=O)CSC2c2ccc([N+](=O)[O-])cc2)cc1` (stereo not given) the AC50 was > 42 µM (inactive).
For `Cc1[nH]c2ccccc2c1/C=N/NC(=O)c1cccc(Br)c1`, the AC50 was > 42 µM (inactive).
`CN1C2CCC1CC(OC(=O)c1ccc([N+](=O)[O-])cc1)C2` (stereo not given) was tested, and the AC50 was > 42 µM (inactive).
In the case of `CSc1ncc2ncn(C3OC(CO)C(O)C3O)c2n1` (stereo not given), the AC50 is reported as > 42 µM (inactive).
With `O=C(CP(=O)(c1ccccc1)c1ccccc1)N1CCOCC1` the AC50 was > 42 µM (inactive).
In the case of `O=C(CCCn1cnc([N+](=O)[O-])n1)Nc1cccc2ccccc12`, the AC50 is reported as > 42 µM (inactive).
For `Cc1cc(C(=O)NN)n[nH]1`, the AC50 was > 42 µM (inactive).
With `COc1cccc(-c2nn(-c3ccccc3)cc2/C=C(/NC(=O)c2ccccc2)C(=O)O)c1` the AC50 was > 42 µM (inactive).
In the case of `COc1ccc(N2CCN(C3CCCN(Cc4cccc(OC)c4)C3)CC2)cc1` (stereo not given), the AC50 is reported as > 42 µM (inactive).
`COC(=O)[C@@]12CCCCN1[C@H](c1ccc(-c3ccc(C(C)=O)cc3)cc1)[C@@H]1C(=O)N(C)C(=O)[C@@H]12` was tested, and the AC50 was > 42 µM (inactive).
In the case of `O=C(NCc1ccccn1)C1Nc2ccc(C(F)(F)F)cc2C2C=CCC12` (stereo not given), the AC50 is reported as > 42 µM (inactive).
`CCN(CC)C(=O)CSC(Nc1cccc(F)c1)=C(C#N)C#N` was tested, and the AC50 was > 42 µM (inactive).
`Cc1ccccc1NC(=O)c1ccccc1NC(=O)c1ccco1` was tested, and the AC50 was > 42 µM (inactive).
With `CCn1c(N2CCN(C(=O)C34CC5CC(CC(C5)C3)C4)CC2)nc2ccccc21` the AC50 was > 42 µM (inactive).
`Cc1cc2ncc(C(=O)N=CN(C)C)cn2n1` was tested, and the AC50 was > 42 µM (inactive).
For `CC(=O)c1ccc(Nc2cc(C)nc3ccccc23)cc1`, the AC50 was > 42 µM (inactive).
`CCOC(=O)CSc1cc(C)nc2ccc(OC)cc12` was tested, and the AC50 was > 42 µM (inactive).
For `Cc1cccc(/C=N/NC(=O)Cc2cccs2)c1`, the AC50 was > 42 µM (inactive).
In the case of `COc1ccc2c(c1)[C@H]1[C@H](CO2)[C@H](c2ccccc2)[C@]2(C)C(=O)Nc3ccc(C)cc3C(=O)N12`, the AC50 is reported as > 42 µM (inactive).
`O=C(COc1cccnc1[N+](=O)[O-])Nc1ccc2c(c1)CCC2` was tested, and the AC50 was > 21 µM (inactive).
For `Cc1cccc(NC(=S)NC(=O)/C=C/c2ccco2)c1`, the AC50 was > 42 µM (inactive).
In the case of `O=C(Nc1nccs1)C1CCN(S(=O)(=O)c2ccc(Cl)c(C(F)(F)F)c2)CC1`, the AC50 is reported as > 42 µM (inactive).
For `Cc1ccc(C(=O)N/C(=C/c2ccccc2)C(=O)NCC2CCCO2)cc1` (stereo not given), the AC50 was > 42 µM (inactive).
`Nc1ccc(C2(c3ccc(N)cc3)OC(=O)c3ccccc32)cc1` was tested, and the AC50 was > 42 µM (inactive).
In the case of `COc1ccccc1-c1nc2ccccc2nc1-c1ccccc1OC`, the AC50 is reported as > 42 µM (inactive).
`Cc1ccc(C2=NN(CC(=O)NCc3cccs3)C(=O)CC2)cc1` was tested, and the AC50 was > 42 µM (inactive).
`CCN(CC)CCCn1c(=S)[nH]c2ccc(Cl)cc2c1=O` was tested, and the AC50 was > 42 µM (inactive).
With `COc1ccc2oc(=O)c(C(=O)NCc3ccco3)cc2c1` the AC50 was > 42 µM (inactive).
`COc1ccccc1CNc1ncnc2nc[nH]c12` was tested, and the AC50 was > 42 µM (inactive).
`O=C(Nc1ncccn1)c1ccc(C(F)(F)F)cc1` was tested, and the AC50 was > 42 µM (inactive).
For `CC(C)CCNC(=O)Cn1c(=O)oc2cc(S(=O)(=O)N3CC(C)CC(C)C3)ccc21` (stereo not given), the AC50 was > 42 µM (inactive).
In the case of `NN1C(=O)NC(c2ccccc2)(c2ccccc2)C1=O`, the AC50 is reported as > 42 µM (inactive).
With `COC(=O)C(CC(C)C)NC(=O)CNC(=O)c1ccccc1C` (stereo not given) the AC50 was > 42 µM (inactive).
For `O=C(OCc1nc2ccsc2c(=O)[nH]1)c1ccco1`, the AC50 was > 42 µM (inactive).
For `CS(=O)(=O)Nc1ccccc1C(=O)NCCSCc1ccccc1`, the AC50 was > 42 µM (inactive).
In the case of `CN(C)S(=O)(=O)c1ccc(Cl)c(NC(=O)CN2C(=O)NC(C)(C3CC3)C2=O)c1` (stereo not given), the AC50 is reported as > 42 µM (inactive).
For `NC(=O)c1nsc(C(=O)N(Cc2ccc(F)cc2)C(C(=O)NC2CCCC2)c2ccco2)c1N` (stereo not given), the AC50 was > 42 µM (inactive).
For `CN(C)CCCN(Cc1ccccc1)C(=S)Nc1ccc(F)c(Cl)c1`, the AC50 was > 42 µM (inactive).
In the case of `OC(COCc1cccs1)CN1CCCCCC1` (stereo not given), the AC50 is reported as > 42 µM (inactive).
With `CC(=O)Cc1nsc(Nc2cccc(C)c2)n1` the AC50 was > 42 µM (inactive).
For `CCc1ccc(-n2c(Cc3ccccc3)n[nH]c2=S)cc1`, the AC50 was > 42 µM (inactive).
`Cc1ccc(O)c(C)c1` was tested, and the AC50 was > 42 µM (inactive).
With `O=c1cc(-c2ccccc2)nc(N2CCN(Cc3ccccc3)CC2)[nH]1` the AC50 was > 42 µM (inactive).
For `Cn1c(=O)c2c(nc(N/N=C/c3ccc(OC(=O)c4ccco4)cc3)n2Cc2ccccc2Cl)n(C)c1=O`, the AC50 was > 42 µM (inactive).
With `N#C/C(=C\Nc1ccc2c(c1)OCCO2)c1nc2ccccc2[nH]1` the AC50 was > 42 µM (inactive).
For `Cn1cc(Br)c(C(=O)Nc2nccs2)n1`, the AC50 was > 42 µM (inactive).
With `CCCCOc1ccc(C(O)C(CN2CCOCC2)c2ccccc2)cc1` (stereo not given) the AC50 was > 42 µM (inactive).
In the case of `Nc1ncnc2nc(SCC(=O)N3CCN(c4ccccc4)CC3)[nH]c12`, the AC50 is reported as > 42 µM (inactive).
For `CCCCc1ccc(S(=O)(=O)NNC(=S)NCc2ccco2)cc1`, the AC50 was > 42 µM (inactive).
In the case of `O=C(Cc1cccs1)Nc1cccc(-c2nnc(-c3ccco3)o2)c1`, the AC50 is reported as > 42 µM (inactive).
With `COc1ccc(S(=O)(=O)N2CCN(c3ccc(F)cc3)CC2)cc1C(=O)N1CCOCC1` the AC50 was > 42 µM (inactive).
With `CCOP(=O)(OCC)C(NC(=O)c1cccc([N+](=O)[O-])c1)C(Cl)(Cl)Cl` (stereo not given) the AC50 was > 42 µM (inactive).
`COc1cccc(NC(=O)CN(C)C(=O)c2ccccc2OCc2c(C)noc2C)c1` was tested, and the AC50 was > 42 µM (inactive).
For `O=C(O)c1cccc(N2C(=O)C3C4C=CC(C4=C(c4ccccc4)c4ccccc4)C3C2=O)c1` (stereo not given), the AC50 was > 42 µM (inactive).
In the case of `CC1=C(C)CS(=O)N(S(=O)(=O)c2ccc(Cl)cc2)C1` (stereo not given), the AC50 is reported as 3.41 µM.
With `N#CCC(=O)N/N=C/c1ccc(OS(=O)(=O)c2ccccc2)cc1` the AC50 was > 42 µM (inactive).
In the case of `CSc1ccc(CCNC(=O)C2CCCN(S(=O)(=O)N3CCOCC3)C2)cc1` (stereo not given), the AC50 is reported as > 42 µM (inactive).
`O=C1c2ccccc2NC(c2ccccc2O)N1O` (stereo not given) was tested, and the AC50 was > 42 µM (inactive).
In the case of `Cc1ccc(C(=O)NNc2ncnc3c2cnn3C)cc1`, the AC50 is reported as > 42 µM (inactive).
For `O=c1[nH]cnc2ccc([N+](=O)[O-])cc12`, the AC50 was > 42 µM (inactive).
For `Cc1ccc(N2C(=O)c3cccc4c(N5CCN(C)CC5)ccc(c34)C2=O)c2cccnc12`, the AC50 was > 42 µM (inactive).
For `CC1CCCCC1N=CC1=C(O)CC(C)(C)CC1=O` (stereo not given), the AC50 was > 42 µM (inactive).
For `COc1ccc(C2SCC(=O)Nc3c2c(=O)[nH]n3C2CCCCC2)cc1` (stereo not given), the AC50 was > 42 µM (inactive).
